{
  "source": "ChEMBL document CHEMBL4390686",
  "about": "“Design, Synthesis, and Pharmacokinetic Evaluation of Phosphate and Amino Acid Ester Prodrugs for Improving the Oral Bioavailability of the HIV-1 Protease Inhibitor Atazanavir” (J Med Chem, 2019)",
  "key": {"[1]": {"assay": "Drug recovery in mesenteric vein plasma of closed loop rat intestinal model at 1 mg/kg administered as cassette dose by LC/MS analysis", "type": "ADME, organism-based", "conditions": "in vivo"}, "[2]": {"assay": "Cmin in cannulated Sprague-Dawley rat assessed as atazanavir level at 30 mg/kg equiv of atazanavir administered orally measured after 24 hrs by UPLC/MS/MS analysis", "type": "ADME, organism-based", "conditions": "in vivo, po, read-out: Cmin"}, "UGT1A1 [3]": {"target": "T1, UGT1A1 (Homo sapiens, UniProt P22309)", "T1 sequence (P22309 whole entry)": "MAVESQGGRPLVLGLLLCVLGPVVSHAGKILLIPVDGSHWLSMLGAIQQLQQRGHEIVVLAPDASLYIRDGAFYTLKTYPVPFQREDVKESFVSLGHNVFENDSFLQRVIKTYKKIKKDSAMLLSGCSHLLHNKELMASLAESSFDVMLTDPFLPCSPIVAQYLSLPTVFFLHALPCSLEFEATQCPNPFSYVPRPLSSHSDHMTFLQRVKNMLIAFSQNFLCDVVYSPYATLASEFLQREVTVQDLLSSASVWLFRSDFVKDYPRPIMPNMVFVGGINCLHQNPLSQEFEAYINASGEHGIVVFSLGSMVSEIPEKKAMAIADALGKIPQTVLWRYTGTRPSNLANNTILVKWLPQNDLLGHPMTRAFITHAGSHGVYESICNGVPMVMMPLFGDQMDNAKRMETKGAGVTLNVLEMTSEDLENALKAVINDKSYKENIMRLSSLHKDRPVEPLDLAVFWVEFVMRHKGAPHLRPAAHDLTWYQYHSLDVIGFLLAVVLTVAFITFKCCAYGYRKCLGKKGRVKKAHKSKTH", "assay": "Ratio of test compound IC50 to atazanavir IC50 for recombinant human UGT1A1", "type": "ADME", "conditions": "read-out: Ratio IC50"}, "UGT1A1 [4]": {"target": "T1, UGT1A1", "assay": "Ratio of test compound IC50 to atazanavir IC50 for UGT1A1 in human liver microsomes", "type": "ADME", "conditions": "read-out: Ratio IC50"}, "[5]": {"assay": "Ratio of test compound to atazanavir aqueous solubility in pH 5 buffer by RP-UPLC analysis", "type": "physicochemical"}, "[6]": {"assay": "Prodrug conversion in rat hepatocytes assessed as pseudo first order rate constant for atazanavir formation at 1 uM in absence of esterase inhibitor PMSF/CYP450 inhibitor ABT", "type": "ADME, cell-based, Hepatocyte"}, "[7]": {"tested_on": "Human immunodeficiency virus 1", "description": "Antiviral activity against HIV1 NL4-3 infected in human MT2 cells assessed as reduction in viral yield measured after 4 days by EnduRen live cell substrate based luciferase reporter gene assay"}, "UGT1A1 [8]": {"target": "T2, UGT1A1 (Rattus norvegicus, UniProt Q64550)", "T2 sequence (Q64550 whole entry)": "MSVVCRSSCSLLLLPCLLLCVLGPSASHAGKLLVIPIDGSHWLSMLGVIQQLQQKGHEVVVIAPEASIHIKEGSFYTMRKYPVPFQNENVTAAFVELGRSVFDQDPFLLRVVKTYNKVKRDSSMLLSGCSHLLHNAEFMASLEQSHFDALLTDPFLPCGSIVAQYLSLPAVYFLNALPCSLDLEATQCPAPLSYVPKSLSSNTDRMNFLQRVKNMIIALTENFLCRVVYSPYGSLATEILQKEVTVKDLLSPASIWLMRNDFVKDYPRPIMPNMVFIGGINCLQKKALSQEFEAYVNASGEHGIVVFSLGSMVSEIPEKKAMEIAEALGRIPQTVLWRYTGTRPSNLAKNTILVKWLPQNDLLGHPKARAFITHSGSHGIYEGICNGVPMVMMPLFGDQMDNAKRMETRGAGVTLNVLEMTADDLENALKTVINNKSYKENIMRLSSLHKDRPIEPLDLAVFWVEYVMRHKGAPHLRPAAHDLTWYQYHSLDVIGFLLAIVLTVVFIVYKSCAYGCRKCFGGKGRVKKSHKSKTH", "assay": "Ratio of test compound IC50 to atazanavir IC50 for UGT1A1 in rat liver microsomes", "type": "ADME", "conditions": "read-out: Ratio IC50"}, "[9]": {"conditions": "rat, in vivo, po, 3 mg/kg", "description": "AUClast in cannulated Sprague-Dawley rat assessed as atazanavir level at 3 mg/kg equiv of atazanavir administered orally by UPLC/MS/MS analysis"}, "[10]": {"assay": "Elimination half life in rat hepatocytes at 1 uM in presence of esterase inhibitor PMSF", "type": "ADME, cell-based, Hepatocyte", "conditions": "with PMSF (esterase inhibitor), read-out: beta t1/2"}, "[11]": {"target": "T3, UDP-glucuronosyltransferase 1A1 (Rattus norvegicus, UniProt Q64550)", "T3 sequence (Q64550 whole entry)": "T2 sequence (Q64550 whole entry)", "assay": "Inhibition of recombinant rat UGT1A1 using beta-estradiol as substrate preincubated for 5 mins followed by substrate addition and measured after 40 mins by LC-MS/MS analysis", "type": "ADME"}, "[12]": {"assay": "Total AUC in cannulated Sprague-Dawley rat assessed as atazanavir level at 6 mg/kg equiv of atazanavir administered orally by UPLC/MS/MS analysis relative to atazanavir alone", "type": "ADME, organism-based", "conditions": "in vivo, po"}, "Protease": {"target": "Protease (Human immunodeficiency virus 1, UniProt Q9YQ12)", "sequence (Q9YQ12 whole entry)": "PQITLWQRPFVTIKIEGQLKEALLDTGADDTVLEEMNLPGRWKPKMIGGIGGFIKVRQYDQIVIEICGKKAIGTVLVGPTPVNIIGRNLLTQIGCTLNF", "description": "Inhibition of HIV1 protease activity"}, "UGT1A1 [13]": {"target": "T2, UGT1A1", "assay": "Ratio of test compound IC50 to atazanavir IC50 for recombinant rat UGT1A1", "type": "ADME", "conditions": "read-out: Ratio IC50"}, "[14]": {"conditions": "rat, in vivo, po, 3 mg/kg", "remark": "listed apart in the source"}, "[15]": {"assay": "Drug recovery in intestinal homogenates of closed loop rat intestinal model at 1 mg/kg administered as cassette dose by LC/MS analysis", "type": "ADME, organism-based, Intestine", "conditions": "intestinal homogenate, other: closed loop intestinal model, read-out: Drug recovery"}, "[16]": {"assay": "Elimination half life in rat hepatocytes at 1 uM in presence of CYP450 inhibitor ABT", "type": "ADME, cell-based, Hepatocyte", "conditions": "with ABT (CYP450 inhibitor), read-out: beta t1/2"}, "[17]": {"assay": "Cmin in cannulated Sprague-Dawley rat assessed as atazanavir level at 3 mg/kg equiv of atazanavir administered orally measured after 24 hrs by UPLC/MS/MS analysis", "type": "ADME, organism-based", "conditions": "in vivo, po, BLD = below limit of detection"}, "[18]": {"assay": "Tmax in cannulated Sprague-Dawley rat assessed as atazanavir level at 30 mg/kg equiv of atazanavir administered orally by UPLC/MS/MS analysis", "type": "ADME, organism-based", "conditions": "in vivo, po"}, "[19]": {"assay": "AUClast in cannulated Sprague-Dawley rat assessed as atazanavir level at 6 mg/kg equiv of atazanavir administered orally by UPLC/MS/MS analysis", "type": "ADME, organism-based", "parameters": "dose 6 mg/kg, time 0 - last, route oral", "conditions": "in vivo, po"}, "[20]": {"conditions": "rat, in vivo, po, 3 mg/kg", "remark": "listed apart in the source"}, "physchem [21]": {"assay": "physchem", "conditions": "phosphate buffer, pH 7.4", "description": "Aqueous solubility of the compound in pH 7.4 phosphate buffer by RP-UPLC analysis"}, "[22]": {"assay": "Aqueous solubility of the compound in pH 3 buffer by RP-UPLC analysis", "type": "physicochemical"}, "[23]": {"assay": "Elimination half life in rat hepatocytes at 1 uM in absence of esterase inhibitor PMSF/CYP450 inhibitor ABT", "type": "ADME, cell-based, Hepatocyte", "conditions": "read-out: beta t1/2"}, "physchem [24]": {"assay": "physchem", "conditions": "30% CH3CN/HCl buffer, pH 1", "description": "Half life in pH 1 30%CH3CN/HCl buffer at 50 mM by RP-UPLC analysis"}, "physchem [25]": {"assay": "physchem", "conditions": "30% CH3CN/acetate buffer, pH 4", "description": "Half life in pH 4 30%CH3CN/acetate buffer at 50 mM by RP-UPLC analysis"}, "[26]": {"assay": "Elimination half life in rat hepatocytes at 1 uM in presence of esterase inhibitor PMSF/CYP450 inhibitor ABT", "type": "ADME, cell-based, Hepatocyte", "conditions": "read-out: beta t1/2"}, "[27]": {"assay": "Ratio of test compound to atazanavir aqueous solubility in pH 6.5 phosphate buffer by RP-UPLC analysis", "type": "physicochemical"}, "in vitro": {"assay": "in vitro", "conditions": "human, Caco-2", "description": "Apparent permeability across apical to basolateral side in human Caco2 cells at 2 uM"}, "[28]": {"assay": "Aqueous solubility of the compound in FeSSIF by RP-HPLC analysis", "type": "physicochemical"}, "physchem [29]": {"assay": "physchem", "conditions": "30% CH3CN/phosphate buffer, pH 6.5", "description": "Half life in pH 6.5 30%CH3CN/phosphate buffer at 50 mM by RP-UPLC analysis"}, "[30]": {"assay": "Aqueous solubility of the compound in FaSSIF by RP-HPLC analysis", "type": "physicochemical"}},
  "note": "pEC50, pIC50: −log10 of the molar value.",
  "data": [
    {"smiles": "COC(=O)N[C@H](C(=O)N[C@@H](Cc1ccccc1)[C@H](CN(Cc1ccc(-c2ccccn2)cc1)NC(=O)[C@@H](NC(=O)OC)C(C)(C)C)OC(=O)[C@@H](N)Cc1ccccc1)C(C)(C)C", "values": [
      {"measurement": "Drug recovery", "setting": "[1]", "result": 2.8, "unit": "%"},
      {"measurement": "concentration", "setting": "[2]", "result": 1, "unit": "nM"},
      {"measurement": "selectivity ratio", "setting": "UGT1A1 [3]", "result": 9.3},
      {"measurement": "selectivity ratio", "setting": "UGT1A1 [4]", "result": 4.2},
      {"measurement": "Ratio", "setting": "[5]", "result": 1300},
      {"measurement": "K", "setting": "[6]", "result": 0.0164, "unit": "min⁻¹"},
      {"measurement": "pEC50", "setting": "[7]", "result": "5.90 to 9.05"},
      {"measurement": "selectivity ratio", "setting": "UGT1A1 [8]", "result": 5.7},
      {"measurement": "AUClast", "setting": "[9]", "result": 0.573, "unit": "µM·h"},
      {"measurement": "half-life at 1 µM", "setting": "[10]", "result": 1.28, "unit": "h"},
      {"measurement": "pIC50", "setting": "[11]", "result": 4.90},
      {"measurement": "fold change (FC)", "setting": "[12]", "result": 4.1},
      {"measurement": "pIC50", "setting": "Protease", "result": "5.94 to 8.40"},
      {"measurement": "selectivity ratio", "setting": "UGT1A1 [13]", "result": 3},
      {"measurement": "Tmax", "setting": "[14]", "result": 0.5, "unit": "h"},
      {"measurement": "recovery", "setting": "[15]", "result": 5.6, "unit": "%"},
      {"measurement": "half-life at 1 µM", "setting": "[16]", "result": "> 2", "unit": "h"},
      {"measurement": "Cmin", "setting": "[17]", "result": "Bld"},
      {"measurement": "Tmax", "setting": "[18]", "result": 0.8, "unit": "h"},
      {"measurement": "AUClast", "setting": "[19]", "result": 0.913, "unit": "µM·h"},
      {"measurement": "Cmax", "setting": "[20]", "result": 456, "unit": "nM"},
      {"measurement": "solubility", "setting": "physchem [21]", "result": 1, "unit": "µg/mL"},
      {"measurement": "solubility", "setting": "[22]", "result": "> 3200", "unit": "µg/mL"},
      {"measurement": "half-life at 1 µM", "setting": "[23]", "result": 0.7, "unit": "h"},
      {"measurement": "half-life at 50000 µM", "setting": "physchem [24]", "result": "> 500", "unit": "h"},
      {"measurement": "half-life at 50000 µM", "setting": "physchem [25]", "result": "> 500", "unit": "h"},
      {"measurement": "half-life at 1 µM", "setting": "[26]", "result": "> 2", "unit": "h"},
      {"measurement": "Ratio", "setting": "[27]", "result": 27},
      {"measurement": "Papp A→B at 2 µM", "setting": "in vitro", "result": "< 1.5", "unit": "×10⁻⁶ cm/s"},
      {"measurement": "solubility", "setting": "[28]", "result": "> 500", "unit": "µg/mL"},
      {"measurement": "half-life at 50000 µM", "setting": "physchem [29]", "result": "> 500", "unit": "h"},
      {"measurement": "solubility", "setting": "[30]", "result": 130, "unit": "µg/mL"}
    ]}
  ]
}
